The target in assay [1] is T1, FurX (Cupriavidus pinatubonensis, UniProt Q46UZ9).
T1 sequence (Q46UZ9 1-342): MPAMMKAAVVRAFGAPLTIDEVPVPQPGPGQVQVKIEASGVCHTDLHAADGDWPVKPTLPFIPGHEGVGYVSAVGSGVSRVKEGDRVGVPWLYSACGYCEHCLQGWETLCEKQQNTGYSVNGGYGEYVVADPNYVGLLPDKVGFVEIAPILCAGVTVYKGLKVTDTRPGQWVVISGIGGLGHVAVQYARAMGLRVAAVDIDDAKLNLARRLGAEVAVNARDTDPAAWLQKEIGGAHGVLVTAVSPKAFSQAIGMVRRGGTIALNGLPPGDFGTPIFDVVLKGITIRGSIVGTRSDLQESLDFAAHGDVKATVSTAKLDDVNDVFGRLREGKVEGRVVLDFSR
Nature of the assay: affinity measurement, method only in supplement. The class given is binding.

Assay [2] has as its target FurX, Zn-dependent alcohol dehydrogenase from Cupriavidus necator JMP134 (Cupriavidus necator JMP134). The experiment in a line: SEC-MALS.

pKd: −log10 of the molar value.

With `NC(=O)c1ccc[n+]([C@@H]2O[C@H](COP(=O)(O)OP(=O)(O)OC[C@H]3O[C@@H](n4cnc5c(N)ncnc54)[C@H](O)[C@@H]3O)[C@@H](O)[C@H]2O)c1` [NAD^+], in assay [1], the pKd (usually −log10 of the Kd, conventionally taken in molar units) is 4.06. `OCc1ccco1` [furfuryl alcohol] gave a pKd in assay [1] below 3.00. Turning to “FurX, Zn-dependent alcohol dehydrogenase from Cupriavidus necator JMP134 (enzyme)”, the stoichiometry N (in general, a count of units in the complex or per binding partner) in assay [2] came to 4.
